Data set [1] is described as follows: Solubility in deionized water @ 25° C. It counts as physicochemical. How it is done: (§1) The physiochemical properties of Examples 1-6 and their ability to behave as pro-drugs and release in vivo the parent drug (the desired COX-2 inhibitor 5(S)-ethyl-3-isopropoxy-4-(4-methanesulfonylphenyl)-5-methyl-5H-furan-2-one) were examined. […] To ascertain the rates of conversion of the pro-drugs in vivo, the compounds were dosed as a saline solution of the salt form (except for 1, which was dosed in a PEG-400 solution) in Sprague-Dawley rats at 2 mg/kg intravenously. Plasma levels were measured for levels of the respective pro-drug and the desired COX-2 inhibitor at 5, 15, 30, and 60 min time points. The plasma levels measured at 30 minutes are given below (Table 1).

Data set [2] can be described thus: Plasma levels of pro-drug and desired COX-2 inhibitor after i.v. dosing in Sprague-Dawley rats. In kind it is in vivo. Conditions: for Pharmacokinetic characteristics / In vivo conversion to parent drug in plasma / Levels of pro-drug in vivo: 2 mg/kg i.v.; for Pharmacokinetic characteristics / concentration at 30 min / In vivo conversion to parent drug in plasma: rat; for concentration at 30 min: iv, plasma, 2 mg/kg i.v. dose of pro-drug, Sprague-Dawley rats, value @ 30 min, read-out: Levels of Pro-Drug @ 0.5 hr; for In vivo conversion to parent drug in plasma: plasma at 30 min; for Levels of pro-drug in vivo: rat model. How it is done:
as §1

Data set [3] in a line: Stability of 4 mg/mL solution in water, judged @ 24 hr by LC-MS/HPLC. It counts as physicochemical. Conditions: after 24 hr in water, HPLC analysis. How it is done: as §1
Data set [4] relates to infarct volume. Conditions: MCAO stroke model; cited from earlier work.
For data set [5] the following is noted: background statement; cited from earlier work.
The mark [6] stands for this setting: deionized water, 25 °C, water, read-out: Solubility.
[7] abbreviates: saline solution of the salt form.

Data on seven molecules can be found in patent US20060189682A1, “Water soluble prodrugs of COX-2 inhibitors” (priority 2005, published 2006).

Where two headings read alike, the source gives them in different places. Bounds are passed on as bounds.

With `CC[C@]1(C)OC2(OCC(COP(=O)([O-])OCC[N+](C)(C)C)O2)C(OC(C)C)=C1c1ccc(S(C)(=O)=O)cc1` (stereo in doubt) [Example 3, 2-{[({(2R,7S)-7-ethyl-9-isopropoxy-7-methyl-8-[4-(methylsulfonyl)phenyl]-1,4,6-trioxaspiro[4.4]non-8-en-2-yl}methoxy)(hydroxy)phosphoryl]oxy}-N,N,N-trimethylethanaminium], the solubility – broadly, the concentration that dissolves in the medium under given conditions – in data set [1] was greater than 20000 µg/mL; in data set [1] (setting [6]) it was greater than 10000 µg/mL. Moreover, the “Pharmacokinetic characteristics” value in data set [2] is recorded as “superior pharmacokinetic characteristics”. Besides, in data set [2] (setting [7]), the concentration at 30 min is 200 nM.
For the molecule `CC[C@]1(C)OC2(OCC(CO)O2)C(OC(C)C)=C1c1ccc(S(C)(=O)=O)cc1` (stereo partly drawn) [Example 1, {(7S)-7-ethyl-9-isopropoxy-7-methyl-8-[4-(methylsulfonyl)phenyl]-1,4,6-trioxaspiro[4.4]non-8-en-2-yl}methanol], the solubility in data set [1] was less than 1000 µg/mL. Further, in data set [1] (setting [6]), the solubility is less than 1000 µg/mL. In data set [2], the “Pharmacokinetic characteristics” value was “superior pharmacokinetic characteristics” and the “In vivo conversion to parent drug in plasma” value (shortened to “In vivo conversion”) is on record as “converted to yield appreciable levels of the parent drug”. Also, in data set [2] (dosed in PEG-400 solution), the concentration at 30 min was 1400 nM.
Turning to `CC[C@]1(C)OC2(OCC(COC(=O)CCC(=O)[O-])O2)C(OC(C)C)=C1c1ccc(S(C)(=O)=O)cc1.[Na+]` (stereo partly drawn) [Example 2, Sodium 4-({(7S)-7-ethyl-9-isopropoxy-7-methyl-8-[4-(methylsulfonyl)phenyl]-1,4,6-trioxaspiro[4.4]non-8-en-2-yl}methoxy)-4-oxobutanoate], the solubility in data set [1] (setting [6]) was found to be 2000 µg/mL. Further, in data set [2], the “Pharmacokinetic characteristics” value is recorded as “superior pharmacokinetic characteristics” and the “In vivo conversion” value was “converted to yield appreciable levels of the parent drug”. Besides, the concentration at 30 min in data set [2] (setting [7]) is less than 100 nM.
With `CC[C@]1(C)O/C(=N\[C@@H](CO)C(=O)[O-])C(OC(C)C)=C1c1ccc(S(C)(=O)=O)cc1.[K+]` [Example 4, N-[(5S)-5-ethyl-3-isopropoxy-5-methyl-4-[4-(methylsulfonyl)phenyl]furan-2(5H)-ylidene]-L-serine potassium salt], the solubility in data set [1] (setting [6]) is greater than 10000 µg/mL; in data set [1] (potassium salt), greater than 20000 µg/mL. Moreover, the “Levels of pro-drug in vivo” value in data set [2] is “dropped rapidly”. For the same molecule, in data set [2], the “In vivo conversion” value was “failed to give appreciable amounts of the parent drug”.
On to `CC[C@@]1(C)OC2(OC[C@@H]([C@H]3OC(=O)C(O)=C3[O-])O2)C(OC(C)C)=C1c1ccc(S(C)(=O)=O)cc1.[Na+]` (stereo partly drawn) [Example 5], for which the solubility was greater than 10000 µg/mL in data set [1] (setting [6]) and greater than 20000 µg/mL in data set [1] (monosodium salt). For the same molecule, the “Pharmacokinetic characteristics” value in data set [2] is listed as “superior pharmacokinetic characteristics”. Also, the “Stability in solution” value in data set [3] is “rapid decomposition”.
As to `CC[C@]1(C)O/C(=N\OCC(=O)[O-])C(OC(C)C)=C1c1ccc(S(C)(=O)=O)cc1.[Na+]` [Example 6, [[[(5S)-5-ethyl-5-methyl-3-(1-methylethoxy)-4-[4-(methylsulfonyl)phenyl]-2(5H)-furanylidene]amino]oxy]acetic acid sodium salt], the solubility in data set [1] (setting [6]) is greater than 10000 µg/mL. The solubility in data set [1] (sodium salt) worked out at 10000 µg/mL. In data set [2], the “Levels of pro-drug in vivo” value is “dropped rapidly” and the “In vivo conversion” value is on record as “failed to give appreciable amounts of the parent drug”.
Take `CC[C@]1(C)OC(=O)C(OC(C)C)=C1c1ccc(S(C)(=O)=O)cc1` [parent drug, 5(S)-ethyl-3-isopropoxy-4-(4-methanesulfonylphenyl)-5-methyl-5H-furan-2-one]: the “Infarct volume” value in data set [4] was “reduction in infarct volume”. In addition, the “Water solubility” value in data set [5] is “poor water solubility”.
